Data on 1 molecule can be found in article PMC10989772 (mLife, 2022).

Structures are written as SMILES.

By Kd is commonly meant the concentration at which binding is half-saturated. Lower therefore signals a tighter complex.

For experiment [1], the target named is Larg1 (lpg0081, 16–428aa) (Legionella pneumophila, UniProt Q5ZZD0).
Experiment [2] deals with Larg1 (Lpg0081) (Legionella pneumophila, UniProt Q5ZZD0).
Larg1 (Lpg0081), sequence (Q5ZZD0 1-441 limits assumed): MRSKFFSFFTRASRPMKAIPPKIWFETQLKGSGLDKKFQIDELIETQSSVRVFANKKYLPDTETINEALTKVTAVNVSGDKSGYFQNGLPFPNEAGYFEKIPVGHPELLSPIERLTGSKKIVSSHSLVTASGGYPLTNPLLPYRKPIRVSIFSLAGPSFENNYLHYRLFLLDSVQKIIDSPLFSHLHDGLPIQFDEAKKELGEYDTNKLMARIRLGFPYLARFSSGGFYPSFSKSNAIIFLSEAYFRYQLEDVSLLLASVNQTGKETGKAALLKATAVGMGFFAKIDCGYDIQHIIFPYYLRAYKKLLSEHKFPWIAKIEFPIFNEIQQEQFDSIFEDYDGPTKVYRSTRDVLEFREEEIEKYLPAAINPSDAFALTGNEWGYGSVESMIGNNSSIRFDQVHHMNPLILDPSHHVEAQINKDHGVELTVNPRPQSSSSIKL

Larg1 (lpg0081, 16–428aa), sequence (Q5ZZD0 16-428 limits assumed): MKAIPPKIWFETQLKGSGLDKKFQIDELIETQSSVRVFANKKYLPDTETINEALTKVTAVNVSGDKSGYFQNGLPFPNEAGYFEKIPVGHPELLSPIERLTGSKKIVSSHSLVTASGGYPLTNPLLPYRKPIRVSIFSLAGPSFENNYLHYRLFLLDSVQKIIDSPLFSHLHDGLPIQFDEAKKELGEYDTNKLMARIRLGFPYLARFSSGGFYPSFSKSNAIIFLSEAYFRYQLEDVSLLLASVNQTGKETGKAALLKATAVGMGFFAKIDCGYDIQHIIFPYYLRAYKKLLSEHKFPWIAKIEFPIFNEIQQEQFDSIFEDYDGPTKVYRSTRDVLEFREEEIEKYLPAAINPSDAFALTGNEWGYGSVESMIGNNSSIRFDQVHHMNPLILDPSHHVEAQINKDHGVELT

Take `Nc1ncnc2c1ncn2[C@@H]1O[C@H](COP(=O)(O)OP(=O)(O)OC[C@H]2OC(O)[C@H](O)[C@@H]2O)[C@@H](O)[C@H]1O` (some centres unmarked) [ADPR]: the “X-ray crystal structure, 2.32 Å” value in experiment [1] is listed as “to determine the structure of the Larg1‐ADPR complex (PDB:7W3S)”. Moreover, in experiment [2], the affinity, expressed as Kd, was 3.87 µM.
